Several values for one entry are separate records, joined by “and”; a condition that tells them apart may be missing. Equal entries are not always repeated.
Conditions: Liquid, Vibrating tube method

CCCCCC(=O)OCC(COC(=O)CCCCC)(COC(=O)CCCCC)COC(=O)CCCCC [pentaerythritol tetrahexanoate]
Conditions | mass density
343.15 K, 29943 kPa | 978.1 kg/m3
343.15 K, 29977 kPa | 978.2 kg/m3
343.15 K, 30005 kPa | 978.1 kg/m3
343.15 K, 30034 kPa | 978.2 kg/m3
343.15 K, 30068 kPa | 978.2 kg/m3
343.15 K, 34037 kPa | 980.7 kg/m3 and 980.8 kg/m3
343.15 K, 34038 kPa | 980.6 kg/m3
343.15 K, 34070 kPa | 980.7 kg/m3
343.15 K, 34080 kPa | 980.7 kg/m3
343.15 K, 34257 kPa | 980.8 kg/m3
343.15 K, 34258 kPa | 980.9 kg/m3
343.15 K, 34259 kPa | 981 kg/m3 and 980.9 kg/m3
343.15 K, 34260 kPa | 980.7 kg/m3 and 980.8 kg/m3
343.15 K, 34261 kPa | 980.8 kg/m3
343.15 K, 34262 kPa | 980.8 kg/m3 and 980.9 kg/m3
343.15 K, 34263 kPa | 980.7 kg/m3
343.15 K, 34264 kPa | 980.9 kg/m3 and 980.8 kg/m3
343.15 K, 34271 kPa | 980.8 kg/m3
343.15 K, 34272 kPa | 980.9 kg/m3
343.15 K, 34279 kPa | 980.9 kg/m3 and 981 kg/m3
343.15 K, 34280 kPa | 980.8 kg/m3 and 980.9 kg/m3
343.15 K, 34281 kPa | 980.9 kg/m3
343.15 K, 34282 kPa | 980.8 kg/m3 and 980.9 kg/m3
343.16 K, 205.2 kPa | 957.2 kg/m3
343.16 K, 205.3 kPa | 957.3 kg/m3
343.16 K, 205.5 kPa | 957.1 kg/m3 and 957.3 kg/m3
343.16 K, 205.7 kPa | 957.3 kg/m3
343.16 K, 205.9 kPa | 957.3 kg/m3 and 957.2 kg/m3
343.16 K, 206 kPa | 957.2 kg/m3 and 957.3 kg/m3
343.16 K, 206.2 kPa | 957.2 kg/m3 and 957.3 kg/m3
343.16 K, 206.4 kPa | 957.3 kg/m3 and 957.2 kg/m3
343.16 K, 206.6 kPa | 957.2 kg/m3
343.16 K, 206.7 kPa | 957.2 kg/m3
343.16 K, 207.1 kPa | 957.3 kg/m3
343.16 K, 207.4 kPa | 957.3 kg/m3 and 957.1 kg/m3
343.16 K, 207.6 kPa | 957.2 kg/m3 and 957.1 kg/m3
343.16 K, 207.8 kPa | 957.3 kg/m3
343.16 K, 207.9 kPa | 957.3 kg/m3 and 957.2 kg/m3
343.16 K, 208 kPa | 957.1 kg/m3 and 957.3 kg/m3
343.16 K, 208.1 kPa | 957.2 kg/m3 and 957.3 kg/m3
343.16 K, 208.5 kPa | 957.4 kg/m3 and 957.2 kg/m3 and 957.3 kg/m3
343.16 K, 208.6 kPa | 957.2 kg/m3 and 957.1 kg/m3
343.16 K, 208.7 kPa | 957.2 kg/m3
343.16 K, 209.9 kPa | 957.1 kg/m3
343.16 K, 210 kPa | 957.4 kg/m3 and 957.2 kg/m3
343.16 K, 210.2 kPa | 957.4 kg/m3
343.16 K, 210.4 kPa | 957.2 kg/m3
343.16 K, 210.6 kPa | 957.2 kg/m3
343.16 K, 210.9 kPa | 957.2 kg/m3
343.16 K, 211.1 kPa | 957.3 kg/m3 and 957.2 kg/m3
343.16 K, 211.3 kPa | 957.2 kg/m3 and 957.3 kg/m3
343.16 K, 211.4 kPa | 957.3 kg/m3
343.16 K, 211.6 kPa | 957.2 kg/m3
343.16 K, 211.8 kPa | 957.2 kg/m3
343.16 K, 211.9 kPa | 957.4 kg/m3 and 957.2 kg/m3 and 957.5 kg/m3
343.16 K, 212.1 kPa | 957 kg/m3
343.16 K, 212.3 kPa | 957.3 kg/m3
343.16 K, 212.6 kPa | 957.3 kg/m3
343.16 K, 214.2 kPa | 957.2 kg/m3 and 957.4 kg/m3
343.16 K, 214.4 kPa | 957.2 kg/m3
343.16 K, 214.5 kPa | 957.3 kg/m3
343.16 K, 214.6 kPa | 957.2 kg/m3
343.16 K, 214.7 kPa | 957.2 kg/m3
343.16 K, 214.9 kPa | 957.3 kg/m3 and 957.2 kg/m3
343.16 K, 215.1 kPa | 957.2 kg/m3
343.16 K, 215.8 kPa | 957.2 kg/m3
343.16 K, 216.1 kPa | 957.3 kg/m3 and 957.1 kg/m3
343.16 K, 216.3 kPa | 957.3 kg/m3 and 957.4 kg/m3
343.16 K, 216.8 kPa | 957.4 kg/m3
343.16 K, 217 kPa | 957.3 kg/m3 and 957.2 kg/m3
343.16 K, 217.5 kPa | 957.4 kg/m3 and 957.3 kg/m3
343.16 K, 217.7 kPa | 957.1 kg/m3 and 957.5 kg/m3 and 957.2 kg/m3
343.16 K, 217.9 kPa | 957.3 kg/m3 and 957.2 kg/m3
343.16 K, 218 kPa | 957.2 kg/m3 and 957.3 kg/m3
343.16 K, 218.2 kPa | 957.3 kg/m3 and 957.2 kg/m3
343.16 K, 218.6 kPa | 957.3 kg/m3 and 957.2 kg/m3
343.16 K, 218.7 kPa | 957.4 kg/m3
343.16 K, 219.6 kPa | 957.3 kg/m3
343.16 K, 219.8 kPa | 957.3 kg/m3
343.16 K, 221 kPa | 957.2 kg/m3
343.16 K, 221.2 kPa | 957.2 kg/m3 and 957.3 kg/m3
343.16 K, 221.3 kPa | 957.3 kg/m3
343.16 K, 221.5 kPa | 957.2 kg/m3
343.16 K, 221.7 kPa | 957.1 kg/m3 and 957.3 kg/m3
343.16 K, 221.9 kPa | 957.2 kg/m3
343.16 K, 222.1 kPa | 957.3 kg/m3
343.16 K, 222.2 kPa | 957.3 kg/m3 and 957.2 kg/m3
343.16 K, 222.4 kPa | 957.3 kg/m3
343.16 K, 222.6 kPa | 957.3 kg/m3 and 957.2 kg/m3
343.16 K, 224.6 kPa | 957.2 kg/m3
343.16 K, 224.8 kPa | 957.1 kg/m3
343.16 K, 225.2 kPa | 957.3 kg/m3
343.16 K, 225.5 kPa | 957.3 kg/m3 and 957.2 kg/m3
343.16 K, 225.7 kPa | 957.2 kg/m3
343.16 K, 226 kPa | 957.2 kg/m3
343.16 K, 226.2 kPa | 957.2 kg/m3
343.16 K, 226.4 kPa | 957.1 kg/m3
343.16 K, 226.6 kPa | 957.3 kg/m3
343.16 K, 226.7 kPa | 957.2 kg/m3
343.16 K, 227.3 kPa | 957.3 kg/m3
343.16 K, 227.4 kPa | 957.3 kg/m3
343.16 K, 227.6 kPa | 957.3 kg/m3
343.16 K, 227.8 kPa | 957.3 kg/m3
343.16 K, 227.9 kPa | 957.2 kg/m3
343.16 K, 228 kPa | 957.3 kg/m3 and 957.2 kg/m3
343.16 K, 228.1 kPa | 957.4 kg/m3
343.16 K, 228.3 kPa | 957.1 kg/m3 and 957.2 kg/m3
343.16 K, 228.8 kPa | 957.2 kg/m3 and 957.3 kg/m3
343.16 K, 229 kPa | 957.3 kg/m3
343.16 K, 229.2 kPa | 957.3 kg/m3 and 957.2 kg/m3
343.16 K, 229.3 kPa | 957.2 kg/m3
343.16 K, 229.7 kPa | 957.1 kg/m3 and 957.3 kg/m3
343.16 K, 229.9 kPa | 957.3 kg/m3
343.16 K, 230.1 kPa | 957.4 kg/m3
343.16 K, 230.4 kPa | 957.3 kg/m3
343.16 K, 230.6 kPa | 957.2 kg/m3
343.16 K, 230.7 kPa | 957.2 kg/m3
343.16 K, 230.9 kPa | 957.3 kg/m3
343.16 K, 231.4 kPa | 957.1 kg/m3
343.16 K, 239.3 kPa | 957.2 kg/m3
343.16 K, 239.4 kPa | 957.2 kg/m3
343.16 K, 239.6 kPa | 957.3 kg/m3
343.16 K, 239.8 kPa | 957.2 kg/m3
343.16 K, 239.9 kPa | 957.3 kg/m3
343.16 K, 241.9 kPa | 957.3 kg/m3
343.16 K, 246.2 kPa | 957.2 kg/m3
343.16 K, 246.5 kPa | 957.2 kg/m3
343.16 K, 246.9 kPa | 957.2 kg/m3
343.16 K, 247.1 kPa | 957.2 kg/m3
343.16 K, 247.2 kPa | 957.3 kg/m3
343.16 K, 247.4 kPa | 957.3 kg/m3
343.16 K, 247.6 kPa | 957.2 kg/m3 and 957.3 kg/m3
343.16 K, 247.8 kPa | 957.2 kg/m3 and 957.3 kg/m3
343.16 K, 247.9 kPa | 957.4 kg/m3 and 957.3 kg/m3
343.16 K, 248.1 kPa | 957.4 kg/m3
343.16 K, 248.3 kPa | 957.3 kg/m3
343.16 K, 248.6 kPa | 957.3 kg/m3
343.16 K, 248.8 kPa | 957.3 kg/m3 and 957.2 kg/m3
343.16 K, 249 kPa | 957.2 kg/m3
343.16 K, 249.2 kPa | 957.2 kg/m3
343.16 K, 249.8 kPa | 957.2 kg/m3
343.16 K, 250.4 kPa | 957.2 kg/m3
343.16 K, 250.6 kPa | 957.3 kg/m3
343.16 K, 250.7 kPa | 957.1 kg/m3
343.16 K, 250.9 kPa | 957.3 kg/m3 and 957.2 kg/m3
